Laboratory results reported in patent US6949542B2, “Dihydro-benzo[b][1,4]diazepin-2-one derivatives” (Hoffman-La Roche Inc., priority 2002, dated 2005).

Compound	melting point [°C]
CCc1cnc(C)cc1-c1cccc(C2=Nc3ccc(C(F)(F)F)cc3NC(=O)C2)c1 [Example 149, 4-[3-(5-Ethyl-2-methyl-pyridin-4-yl)-phenyl]-8-trifluoromethyl-1,3-dihydro benzo[b][1,4]diazepin-2-one]	183
Cc1cc2c(cc1C(F)(F)F)NC(=O)CC(c1cccc(-c3ccnc(N4CCCC4)c3)c1)=N2 [Example 389, 7-Methyl-4-[3-(2-pyrrolidin-1-yl-pyridin-4-yl)-phenyl]-8-trifluoromethyl-1,3-dihydro-benzo[b][1,4]diazepin-2-one]	190
Cc1cc2c(cc1Cl)NC(=O)CC(c1cccc(-c3ccnc(CN(C)CC(C)C)c3)c1)=N2 [Example 396, 8-Chloro-4-(3-{2-[(isobutyl-methyl-amino)-methyl]-pyridin-4-yl}-phenyl)-7-methyl-1,3-dihydro-benzo[b][1,4]diazepin-2-one]	151
Cc1cc(-c2cccc(C3=Nc4cc(N(C)C)c(C(F)(F)F)cc4NC(=O)C3)c2)cc(C)n1 [Example 409, 7-Dimethylamino-4-[3-(2,6-dimethyl-pyridin-4-yl)-phenyl]-8-trifluoromethyl-1,3-dihydro-benzo[b][1,4]diazepin-2-one]	256
Cc1cc2c(cc1C(F)(F)F)NC(=O)CC(c1ccnc(-c3ccncc3)c1)=N2 [Example 292, 4-[2,4′]Bipyridinyl-4-yl-7-methyl-8-trifluoromethyl-1,3-dihydro-benzo[b][1,4]diazepin-2-one]	224 to 226
Cc1cc(-c2cccc(C3=Nc4cc(N(C)C)c(C(F)(F)F)cc4NC(=O)C3)c2)ncn1 [Example 310, 7-Dimethylamino-4-[3-(6-methyl-pyrimidin-4-yl)-phenyl]-8-trifluoromethyl-1,3-dihydro-benzo[b][1,4]diazepin-2-one]	232 to 236

Results, then the molecule that gave them:

melting point [°C]	Compound
219 to 221	CCCOc1cc2c(cc1C(F)(F)F)NC(=O)CC(c1cccc(-c3cccnc3)c1)=N2 [Example 215, 7-Propoxy-4-(3-pyridin-3-yl-phenyl)-8-trifluoromethyl-1,3-dihydro-benzo[b][1,4]diazepin-2-one]
209 to 210	CCCOc1cc2c(cc1C(F)(F)F)NC(=O)CC(c1cccc(-c3ccc(C4CC4)nc3)c1)=N2 [Example 216, 4-[3-(6-Cyclopropyl-pyridin-3-yl)-phenyl]-7-propoxy-8-trifluoromethyl-1,3-dihydro-benzo[b][1,4]diazepin-2-one]
203 to 204	O=C1CC(c2cccc(-c3cccnc3)c2)=Nc2cc(OCC(F)(F)F)c(Cl)cc2N1 [Example 202, 8-Chloro-4-(3-pyridin-3-yl-phenyl)-7-(2,2,2-trifluoro-ethoxy)-1,3-dihydro-benzo[b][1,4]diazepin-2-one]
217	CCOc1cc2c(cc1C(F)(F)F)NC(=O)CC(c1cccc(-c3ccnc(C)c3C)c1)=N2 [Example 146, 4-[3-(2,3-Dimethyl-pyridin-4-yl)-phenyl]-7-ethoxy-8-trifluoromethyl-1,3-dihydro-benzo[b][1,4]diazepin-2-one]
200	CN(C)c1cc2c(cc1C(F)(F)F)NC(=O)CC(c1cccc(-c3cncnc3)c1)=N2 [Example 85, 7-Dimethylamino-4-(3-pyrimidin-5-yl-phenyl)-8-trifluoromethyl-1,3-dihydro-benzo[b][1,4]diazepin-2-one]
213	CC(C)Cc1cc(-c2cccc(C3=Nc4cc(Cl)c(C(F)(F)F)cc4NC(=O)C3)c2)ccn1 [Example 278, 7-Chloro-4-[3-(2-isobutyl-pyridin-4-yl)-phenyl]-8-trifluoromethyl-1,3-dihydro benzo[b][1,4]diazepin-2-one]
219 to 224	COc1ccc(-c2cccc(C3=Nc4cc(C)c(C(F)(F)F)cc4NC(=O)C3)c2)cn1 [Example 168, 4-[3-(6-Methoxy-pyridin-3-yl)-phenyl]-7-methyl-8-trifluoromethyl-1,3-dihydro-benzo[b][1,4]diazepin-2-one]
